Test system: ventral prostate
Test: Ventral Prostate Weight in vivo Assay (inhibition of testosterone-enhanced tissue weight)
Set-up: key: “active” in the Table below if the non weight adjusted prostate weight was ≦40 mg or the % Inhibition prostate weight, body weight adjusted was ≧40% @ 2 mg/day dosage; listed herein as “inactive” as they did not meet the specified criteria defined above
Conditions: castrated male Sprague Dawley rats, test compound usually orally once daily with testosterone propionate s.c.; ventral prostate wet weight; criteria at 2 mg/day dosage
Procedure: (§1) Ventral Prostate and Levator Ani Weight in vivo Assay
(§2) Immature (approximately 50 g) castrated male Sprague Dawley rats (Charles River) were treated once daily for five days with test compound (usually given orally at 40 mg/kg in a volume of 0.3 mL, in 30% cyclodextrin or 0.5% methylcellulose vehicle) and with testosterone propionate (given subcutaneously by injection at the nape of the neck at 2 mg/kg, in a volume of 0.1 mL in sesame oil). On the sixth day, the rats were euthanized by asphyxiation in carbon dioxide. Ventral prostates and levator ani were removed and their wet weights determined. Test compound activity was determined as the percent inhibition of testosterone-enhanced tissue weights, with a vehicle-treated control group set to zero percent and a testosterone alone-treated control group set to 100%.
(§3) Mature (150- to 200-g) castrated male Sprague Dawley rats (Charles River) are similarly tested according to the procedure described above. The rats were dosed for two weeks, with 0.4 mg/kg testosterone propionate used as the positive control.
(§4) Representative compounds of the present invention were tested according to the procedure described above, with results as listed in Table 3 below. For effect on prostate—i.e. an antagonist—a test compound is listed as “active” in the Table below if the non weight adjusted prostate weight was ≦40 mg or the % Inhibition prostate weight, body weight adjusted was ≧40% @ 2 mg/day dosage. For effect on levator ani—i.e. an agonist—a test compound is listed as “active” in the Table below if the non weight adjusted levator ani weight was ≧40 mg or the % Stimulation levator ani weight, body weight adjusted was ≧40% at 2 mg/day dosage.

Row | SMILES | Prostate antagonist
1 | C=CCC(O)(c1nc2cc(Cl)c(Cl)cc2[nH]1)C(F)(F)F (single isomer, unassigned; (+)) [Compound 23, (+)-Enantiomer of 2-(5,6-Dichloro-1H-benzoimidazol-2-yl)-1,1,1-trifluoro-pent-4-en-2-ol] | active
2 | C#CCC(O)(c1nc2cc(Cl)c(Cl)cc2n1C)C(F)(F)F (single isomer, unassigned; (+)) [Compound 36, (+)-Enantiomer of 2-(5,6-Dichloro-1-methyl-1H-benzoimidazol-2-yl)-1,1,1-trifluoro-pent-4-yn-2-ol] | inactive
3 | C=CCC(O)(c1nc2cc(Cl)c(Cl)cc2[nH]1)C(F)(F)F (single isomer, unassigned; (-)) [Compound 24, (−)-Enantiomer of 2-(5,6-Dichloro-1H-benzoimidazol-2-yl)-1,1,1-trifluoro-pent-4-en-2-ol] | active
4 | C#CCC(O)(c1nc2cc(Cl)c(Cl)cc2n1C)C(F)(F)F (stereo not drawn) [Compound 35, 2-(5,6-Dichloro-1-methyl-1H-benzoimidazol-2-yl)-1,1,1-trifluoro-pent-4-yn-2-ol] | inactive
5 | C=CCCC(O)(c1nc2cc(Cl)c(Cl)cc2[nH]1)C(F)(F)F (stereo not drawn) [Compound 40, 2-(5,6-Dichloro-1H-benzoimidazol-2-yl)-1,1,1-trifluoro-hex-5-en-2-ol] | active
6 | FC(F)(F)C1(c2nc3cc(Cl)c(Cl)cc3[nH]2)OCCO1 [Compound 47, 5,6-Dichloro-2-(2-trifluoromethyl-[1,3]dioxolan-2-yl)-1H-benzimidazole] | active
7 | FC(F)(F)C1(c2nc3cc(Cl)c(Cl)cc3[nH]2)OCC(CCl)O1 (stereo not drawn) [Compound 50, 5,6-Dichloro-2-(4-chloromethyl-2-trifluoromethyl-[1,3]dioxolan-2-yl)-1H-benzimidazole] | active
8 | Cn1c(C2(C(F)(F)F)OCCO2)nc2cc(Cl)c(Cl)cc21 [Compound 52, 5,6-Dichloro-1-methyl-2-(2-trifluoromethyl-[1,3]dioxolan-2-yl)-1H-benzoimidazole] | inactive
9 | N#CCn1c(C2(C(F)(F)F)OCCO2)nc2cc(Cl)c(Cl)cc21 [Compound 53, [5,6-Dichloro-2-(2-trifluoromethyl-[1,3]dioxolan-2-yl)-benzoimidazol-1-yl]-acetonitrile] | active
10 | C#CCn1c(C2(C(F)(F)F)OCCO2)nc2cc(Cl)c(Cl)cc21 [Compound 54, 5,6-Dichloro-1-prop-2-ynyl-2-(2-trifluoromethyl-[1,3]dioxolan-2-yl)-1H-benzoimidazole] | active
11 | C=CCn1c(C2(C(F)(F)F)OCCO2)nc2cc(Cl)c(Cl)cc21 [Compound 55, 1-Allyl-5,6-dichloro-2-(2-trifluoromethyl-[1,3]dioxolan-2-yl)-1H-benzoimidazole] | active
12 | CCn1c(C2(C(F)(F)F)OCCO2)nc2cc(Cl)c(Cl)cc21 [Compound 56, 5,6-Dichloro-1-ethyl-2-(2-trifluoromethyl-[1,3]dioxolan-2-yl)-1H-benzoimidazole] | active
13 | COC(=O)Cn1c(C2(C(F)(F)F)OCCO2)nc2cc(Cl)c(Cl)cc21 [Compound 57, [5,6-Dichloro-2-(2-trifluoromethyl-[1,3]dioxolan-2-yl)-benzoimidazol-1-yl]-acetic acid methyl ester] | inactive
14 | FC(F)(F)C1(c2nc3cc(Cl)c(Cl)cc3[nH]2)NCCN1 [Compound 60, 5,6-Dichloro-2-(2-trifluoromethyl-imidazolidin-2-yl)-1H-benzimidazole] | active
15 | C=C=C(CC)C(O)(c1nc2cc(Cl)c(Cl)cc2[nH]1)C(F)(F)F (stereo not drawn) [Compound 62, 2-(5,6-Dichloro-1H-benzoimidazol-2-yl)-3-ethyl-1,1,1-trifluoro-penta-3,4-dien-2-ol] | active

Test system: levator ani
Test: Levator Ani Weight in vivo Assay (stimulation of levator ani weight)
Set-up: key: “active” in the Table below if the non weight adjusted prostate weight was ≦40 mg or the % Inhibition prostate weight, body weight adjusted was ≧40% @ 2 mg/day dosage; listed herein as “inactive” as they did not meet the specified criteria defined above
Conditions: castrated male Sprague Dawley rats, test compound usually orally once daily with testosterone propionate s.c.; levator ani wet weight; criteria at 2 mg/day dosage
Procedure: as §1, §2, §3, §4

Row | SMILES | L.A. agonist
16 | C=CCC(O)(c1nc2cc(Cl)c(Cl)cc2[nH]1)C(F)(F)F (single isomer, unassigned; (+)) [Compound 23, (+)-Enantiomer of 2-(5,6-Dichloro-1H-benzoimidazol-2-yl)-1,1,1-trifluoro-pent-4-en-2-ol] | inactive
17 | C#CCC(O)(c1nc2cc(Cl)c(Cl)cc2n1C)C(F)(F)F (single isomer, unassigned; (+)) [Compound 36, (+)-Enantiomer of 2-(5,6-Dichloro-1-methyl-1H-benzoimidazol-2-yl)-1,1,1-trifluoro-pent-4-yn-2-ol] | inactive
18 | C=CCC(O)(c1nc2cc(Cl)c(Cl)cc2[nH]1)C(F)(F)F (single isomer, unassigned; (-)) [Compound 24, (−)-Enantiomer of 2-(5,6-Dichloro-1H-benzoimidazol-2-yl)-1,1,1-trifluoro-pent-4-en-2-ol] | inactive
